The source of these data is patent US7429663B2, “7-(Pyrimidin-4-yl)-Imidazo[1,2-a]Pyrimidin-5(1H)-ones as GSK3β inhibitors” (Sanofi-Aventis, priority 2002, dated 2008).

The target of data set [1] is GSK3β (Homo sapiens, UniProt P49841). The data set can be described thus: Inhibitory activity against GSK3β (33P-ATP phosphorylation of prephosphorylated GS1 peptide, two protocols). The format is biochemical. The conditions noted are these: first or second protocol not specified. As for the experimental part: Inhibitory Activity of the Medicament of the Present Invention Against GSK3β Two different protocols can be used. In a first protocol : 7.5 μM of prephosphorylated GS1 peptide and 10 μM ATP (containing 300,000 cpm of 33P-ATP) were incubated in 25 mM Tris-HCl, pH 7.5, 0.6 mM DTT, 6 mM MgCl2, 0.6 mM EGTA, 0.05 mg/ml BSA buffer for 1 hour at room temperature in the presence of GSK3β (total reaction volume : 100 microliters). In a second protocol : 4.1 μM of prephosphorylated GS1 peptide and 42 μM ATP (containing 260,000 cpm 33P-ATP) were incubated in 80 mM Mes-NaOH, pH 6.5, 1 mM Mg acetate, 0.5 mM EGTA, 5 mM 2-mercaptoethanol, 0.02% Tween 20, 10% glycerol buffer for 2 hours at room temperature in the presence of GSK3β. Inhibitors were solubilised in DMSO (final solvent concentration in the reaction medium, 1%). The reaction was stopped with 100 microliters of a solution made of 25 g polyphosphoric acid (85% P2O5), 126 ml 85% H3PO4, H2O to 500 ml and then diluted to 1:100 before use. An aliquot of the reaction mixture was then transferred to Whatman P81 cation exchange filters and rinsed with the solution described above. Incorporated 33P radioactivity was determined by liquid scintillation spectrometry. The phosphorylated GS-1 peptide had the following sequence: NH2-[…](P)EDEE-COOH. […]
Sequence of GSK3β (P49841 whole entry, species assumed): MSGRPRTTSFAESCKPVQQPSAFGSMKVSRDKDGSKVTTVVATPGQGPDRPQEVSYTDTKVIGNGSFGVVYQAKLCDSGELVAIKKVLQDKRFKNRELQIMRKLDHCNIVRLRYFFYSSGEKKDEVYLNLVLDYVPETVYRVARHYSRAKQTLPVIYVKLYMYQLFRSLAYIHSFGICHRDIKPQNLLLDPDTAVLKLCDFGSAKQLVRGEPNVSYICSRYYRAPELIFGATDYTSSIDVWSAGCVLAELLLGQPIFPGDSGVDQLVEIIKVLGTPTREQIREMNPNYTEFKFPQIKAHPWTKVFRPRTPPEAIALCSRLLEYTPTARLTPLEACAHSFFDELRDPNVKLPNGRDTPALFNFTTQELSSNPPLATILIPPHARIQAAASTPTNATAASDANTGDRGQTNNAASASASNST

Broadly, the IC50 is the midpoint of a concentration-inhibition curve. A higher IC50 goes with weaker potency. The melting point is the temperature of the solid-liquid transition. For the molecule `O=c1cc(-c2ccncn2)nc2n(CCc3cccc4ccccc34)ccn12` [compound 6, 1-(2-Naphthalen-1-yl-ethyl)-7-(pyrimidin-4-yl)-1H-imidazo[1,2-a]pyrimidin-5-one], the melting point was in the range of 215 to 217 °C. The same molecule yielded an IC50 in data set [1] of 21 nM.

On to `O=c1cc(-c2ccncn2)nc2n(CC(O)c3ccccc3)ccn12` (stereo not shown) [compound 11, 1-(2-Hydroxy-2-phenyl-ethyl)-7-(pyrimidin-4-yl)-1H-imidazo[1,2-a]pyrimidin-5-one], for which the melting point was 159 to 161 °C.

`O=C(Cn1ccn2c(=O)cc(-c3ccncn3)nc12)c1ccccc1` [compound 12, 1-(2-Oxo-2-phenyl-ethyl)-7-(pyrimidin-4-yl)-1H-imidazo[1,2-a]pyrimidin-5-one] gave a melting point of 240 to 242 °C.
